Where two headings read alike, the source gives them in different places.
Legend:
Fusarium sp. = test: Marine-derived fungi growth inhibition (OD405); format: cell-based; conditions: Fusarium, 120 h, 5 days, 26 °C
Experimental: All the biological assays were run by triplicate.
Three strains of marine-derived fungi were kindly provided by Dr. Á. Trigos (University of Veracruz, Mexico). The strains were isolated from reef organisms collected from the Veracruz Reef System and identified as Aspergillus sp., Fusarium sp. and Alternaria sp..
Fungal strains were cultured in Potato-Dextrose Agar (PDA) supplemented with filtered seawater (FSW) (50% v/v) at 26 °C for 5 days prior to experiments. […] Briefly, fungal inocula were prepared by addition of 5 ml of sterile saline solution to the cultures. Gently swabbing released conidia. […] The plates were incubated for 5 days at 26 °C. The calculation of the half-maximal inhibitory concentrations (IC50) was performed using OD405 as endpoint.

Nitzschia sp. = test: Benthic diatom growth inhibition (chlorophyll-a); format: cell-based; conditions: 120 h, read-out: IC50 Nitzschia sp.
Experimental: (§1) All the biological assays were run by triplicate. […] For the active products, serial dilutions were performed to calculate the half-maximal inhibitory concentrations (IC50) or the minimal inhibitory concentrations (MIC). Unless otherwise stated, the test concentrations were 100, 50, 25, 10, 5, 2.5, 1, 0.5 and 0.1 μM. Dose-response curves were adjusted with GraphPad Prism 5 software using a four-parameter non-linear regression model.
(§2) Five strains of benthic diatoms, Nitszchia sp. […] The Nitzschia and Navicula strains were purchased from the Spanish Bank of Algae (Marine Biotechnology Center, University of Las Palmas de Gran Canaria). The other three strains were kindly provided by Dr. G. Courtois (University of Las Palmas de Gran Canaria). Diatoms were cultured at 19±1 °C in Erlenmeyer flaks (250 ml) containing 150 ml of Guillard’s F/2 medium, and subjected to a photoperiod of 18:6. Tests were run in 48-well plates. Inocula were prepared by adjusting diatom concentration to 2–4 × 10^6 cells ml^-1 using a Neubauer chamber. Test products were dissolved in F/2 medium (500 μl) to which diatom inocula (500 μl) were added. Thus, the final assay volume was 1 ml and the starting cell densities were ca. 1–2 x 10^6 diatoms ml^-1. Plates were incubated under the abovementioned conditions for 5 days and then chlorophyll-a (Chla) was quantified.
(§3) In order to extract Chla, the content of each well was transferred to a microcentrifuge tube and centrifuged at 10,000 rpm for 10 min. The supernatants were discarded and 200 μl of DMSO were added to the pellets. The tubes were incubated at 65 °C for 2 h in total darkness and vortexed every 30 min. Then, the content of each tube was transferred to a 96-well plate and the amount of Chla was determined spectrophotometrically. Path length correction factor for the DMSO extracts was determined.

[1] = test system: Navicula cf. salinicola BEA 0055; test: Benthic diatom growth inhibition (chlorophyll-a); format: cell-based; conditions: 120 h, read-out: IC50 Navicula cf. salinicola
Experimental: as §1, §2, §3

[2] = test system: Phaeodactylum tricornutum; test: Benthic diatom growth inhibition (chlorophyll-a); format: cell-based; conditions: Phaeodactylum tricornutum, 120 h, read-out: IC50 P. tricornutum
Experimental: as §1, §2, §3

Cylindrotheca sp. = test: Benthic diatom growth inhibition (chlorophyll-a); format: cell-based; conditions: 120 h, read-out: IC50 Cylindrotheca sp.
Experimental: as §1, §2, §3

Amphora sp. = test: Benthic diatom growth inhibition (chlorophyll-a); format: cell-based; conditions: 120 h, read-out: IC50 Amphora sp.
Experimental: as §1, §2, §3

[3] = test system: violacein production of C. violaceum CVO26; test: Quorum sensing bioassay: violacein production; format: cell-based, Chromobacterium violaceum; conditions: Chromobacterium violaceum, 18 h, read-out: IC50 (Violacein inhibition)
Experimental: The reporter strain C. violaceum CVO26 (CECT 5999) was used to screen the ability of the products to interfere with violacein production, a QS-regulated phenotype. C. violaceum CVO26 is a mini-Tn5 mutant that depends on an exogenous source of autoinducer (AI) (N-hexanoyl homoserine lactone, HHL) for violacein production. C. violaceum CVO26 was cultured in LB broth (Sigma-Aldrich) supplemented with 25 μg ml^-1 kanamycin. Inocula were prepared by dilution (1:100) of an overnight culture of the reporter strain [49]. One hundred microliters of inoculum with HHL (Sigma-Aldrich, 6 μM) or without the AI were added to 96-well plates containing 100 μl of the appropriate dilutions of the test products in LB. Thus, two sets of plates were prepared. One set of plates (without HHL) was used to evaluate the effect of the products on bacterial growth, whereas the other set of plates (with HHL) was used to evaluate their effect on violacein production. Both sets of plates were incubated at 30 °C with agitation (150 rpm) for 18 h.
Growth inhibition was quantified in the first batch of plates by re-suspending bacterial pellets and measuring the OD625. From the second batch of plates violacein was extracted and quantified. Briefly, the plates were dried overnight (60 °C) and violacein was re-solubilized by the addition of 200 μl of DMSO. The plates were shaken for 3 h and then the OD590 was determined.
To evaluate the effect of the alkyl triphenylphosphonium salts on QS-regulated phenotypes, an initial screening at the cut-off concentration of 100 μM was conducted with C. violaceum CVO26. The QS model of C. violaceum is relatively simple and consists of an acyl-homoserine lactone synthase (CviI) that produces the AI molecule N-hexanoyl homoserine lactone (HHL, strain ATCC 31532), or N-3-hydroxydecanoyl homoserine lactone (strain ATCC 12472) which is recognized by the cytoplasmic receptor CviR (Fig 4). The reporter strain CVO26 is a CviI::mini-Tn5 mutant of strain ATCC 31532 and thus recognizes HHL. CviR is a DNA-binding transcription factor that activates the expression of the genes encoding the production of violacein, the characteristic purple alkaloid that gives name to the species.
Indeed, the inhibitions observed in violacein production for long alkyl chains (10–18, 20) were clearly correlated to the biocidal effect exerted by these compounds, with ‘therapeutic ratios’ (IC50 for growth inhibition/IC50 for violacein inhibition) around 1, in general (Table 2). Note that, as the length of the hydrocarbon chain becomes shorter, this ratio increased (8–9). […] To evaluate these compounds in further detail, […] stock solutions were prepared […] to avoid the use of high concentrations of DMSO in the bioassays. […] Serial two-fold dilutions (500–3.9 μM) were assayed. Consequently, the highest amount of DMSO used in the assay was 0.25% (v/v). […] Growth inhibitory effects are only observed at 500 μM, particularly for compound 7 (Fig 6D).

Compound	IC50 (Fusarium sp.)	IC50 (Nitzschia sp.; growth, 5 days, chlorophyll-a)	IC50 ([1]; growth, 5 days, chlorophyll-a)	IC50 ([2]; growth, 5 days, chlorophyll-a)	IC50 (Cylindrotheca sp.; growth, 5 days, chlorophyll-a)	IC50 (Amphora sp.; growth, 5 days, chlorophyll-a)	IC50 [3]	IC50 (Nitzschia sp.)	IC50 [1]	IC50 [2]	IC50 (Cylindrotheca sp.)	IC50 (Amphora sp.)
CCCCC[P+](c1ccccc1)(c1ccccc1)c1ccccc1 [Compound 7]	> 100 µM	> 100 µM	> 100 µM	> 100 µM	> 100 µM	> 100 µM	52.9 µM	–	–	–	–	–
O=S(=O)([O-])CCCC[P+](c1ccccc1)(c1ccccc1)c1ccccc1 [Compound 6]	> 100 µM	> 100 µM	> 100 µM	> 100 µM	21.3 µM	> 100 µM	> 100 µM	–	–	–	–	–
CCCCCCCCCCCCCC[P+](c1ccccc1)(c1ccccc1)c1ccccc1 [Compound 14]	5.1 µM	3.5 µM	1.2 µM	1.5 µM	4.5 µM	2.1 µM	4.6 µM	–	–	–	–	–
CCCCCCC[P+](c1ccccc1)(c1ccccc1)c1ccccc1 [Compound 8, heptyl triphenylphosphonium bromide]	> 100 µM	20.8 µM	6.4 µM	92.2 µM	10.6 µM	37.6 µM	19 µM	–	–	–	–	–
CCCCCCCCCCCC[P+](c1ccccc1)(c1ccccc1)c1ccccc1 [Compound 12]	6.6 µM	–	–	–	–	–	6.6 µM	2.2 µM	1.3 µM	1.2 µM	1 µM	4.8 µM
CCCCCCCCCCCCC[P+](c1ccccc1)(c1ccccc1)c1ccccc1 [Compound 13]	6.5 µM	2.2 µM	1.8 µM	1 µM	1.7 µM	4.5 µM	3.9 µM	–	–	–	–	–
CCCCCCCCC[P+](c1ccccc1)(c1ccccc1)c1ccccc1 [Compound 9]	31.4 µM	3.6 µM	2.7 µM	11.2 µM	1.9 µM	6.2 µM	7.6 µM	–	–	–	–	–
CCCCCCCCCCCCCCCCCC[P+](c1ccccc1)(c1ccccc1)c1ccccc1 [Compound 17]	8.8 µM	7.6 µM	1.2 µM	7.4 µM	8 µM	4.2 µM	7 µM	–	–	–	–	–
CCCCCCCCCCCCCCCCCCC[P+](c1ccccc1)(c1ccccc1)c1ccccc1 [Compound 18]	7.3 µM	4.8 µM	0.8 µM	16.9 µM	6.9 µM	3.4 µM	35.2 µM	–	–	–	–	–
CCCCCCCCCC[P+](c1ccccc1)(c1ccccc1)c1ccccc1 [Compound 10]	21 µM	2.5 µM	2.3 µM	1.9 µM	1 µM	3.2 µM	7.7 µM	–	–	–	–	–
CCCCCCCCCCCCCCC[P+](c1ccccc1)(c1ccccc1)c1ccccc1 [Compound 15]	4.2 µM	3.6 µM	2.8 µM	1.1 µM	2.2 µM	3.1 µM	1.2 µM	–	–	–	–	–
c1ccc([P+](CCCCCCCCCCCC[P+](c2ccccc2)(c2ccccc2)c2ccccc2)(c2ccccc2)c2ccccc2)cc1 [Compound 20]	5.6 µM	2 µM	0.6 µM	1 µM	1.3 µM	1.6 µM	16.7 µM	–	–	–	–	–
O=C(O)CCCCCCCCCC[P+](c1ccccc1)(c1ccccc1)c1ccccc1 [Compound 19]	> 100 µM	> 100 µM	> 100 µM	> 100 µM	24.1 µM	75.5 µM	> 100 µM	–	–	–	–	–
CCCCN[P+](c1ccccc1)(c1ccccc1)c1ccccc1 [Compound 5]	> 100 µM	11.9 µM	8.2 µM	81.5 µM	12.6 µM	42.5 µM	137 µM	–	–	–	–	–
CCCCCCCCCCCCCCCC[P+](c1ccccc1)(c1ccccc1)c1ccccc1 [Compound 16]	9.3 µM	4.9 µM	1.3 µM	1.3 µM	4.7 µM	2.6 µM	4.2 µM	–	–	–	–	–
C/C=C/C[P+](c1ccccc1)(c1ccccc1)c1ccccc1 [Compound 3]	> 100 µM	> 100 µM	62.2 µM	> 100 µM	> 100 µM	> 100 µM	92.3 µM	–	–	–	–	–

— PMC4405350, “From Broad-Spectrum Biocides to Quorum Sensing Disruptors and Mussel Repellents: Antifouling Profile of Alkyl Triphenylphosphonium Salts” (PLoS ONE, 2015)
